Assays:
[1] = Anti-maximal electroshock seizure activity in mice; type: in vivo, mice (male, STD-ddY strain); settings: Mus musculus, oral, MES 60 Hz 25 mA 0.2 s, at peak effect time
Description: Male mice of STD-ddY strain were used. The test compounds were orally administered to the test animals (each group: 10 mice) in the form of a homogeneous suspension in a 0.5% tragacanth solution.
Maximal electroshock seizures (MES) were induced by the method of Swinyard [cf. J. Amer. Pharm. Assoc., Vol. 38, page 201 (1949)]. The animals were subjected to 60 Hz current of 25 mA for 0.2 second delivered through corneal electrodes after administration of the test compounds. […] J. Pharmacol. Exp. Ther., Vol. 96, page 99 (1947)].

[2] = Effect on coordinated motor movements in mice (rotarod); settings: for TD50 / selectivity ratio: mouse, in vivo, po; for NTD50 (median neurotoxic dose): oral, mice, rotarod, at peak effect time
Method: Mice trained to continue coordinated motor movements for 100 seconds or more on a rotarod apparatus (2.5 cm in diameter at 11 RPM) were used [J. Amer. Pharm. […] Impairment of coordinated motor movements was defined as the inability of the animals to retain on the rotarod for a 100 second test period. After oral administration of the test compounds rotarod performance was tested at intervals of 1 hour for 6 hours. Median neurotoxic dose (NTD50), i.e. the does which causes fall from rotarod in 50% of animals, was calculated by the method of Litchfield and Wilcoxon.

[3] = in vivo; settings: mouse; for LD50 at 168 h: mortality observed for 7 days; for selectivity ratio: read-out: Safety index
Description: Male mice of STD-ddY strain weighing 20-22 g were used. The test compounds were orally administered to the test animals (each group: 10 mice) in the form of a homogeneous suspension in 0.5% tragacanth solution.

**Q.** With `CN(C)S(=O)(=O)Cc1nc2ccccc2o1` [compound 21] as the molecule, how does the ED50 [1] read?
**A.** Its ED50 is 34 mg/kg.

**Q.** Which ED50 [1] does the source give for `CCCNS(=O)(=O)Cc1nc2ccccc2o1` [compound 22] here?
**A.** The ED50 was 31.2 mg/kg.

**Q.** With `CNS(=O)(=O)Cc1noc2ccc(Br)cc12` [compound 15] as the molecule, how does the ED50 [1] read?
**A.** Its ED50 is 15 mg/kg.

**Q.** Which ED50 [1] does the source give for `NC(=O)NC(=O)Cc1ccccc1` [Phenacemide, phenylacetylurea, reference compound] here?
**A.** Its ED50 is 61.2 mg/kg.

**Q.** With `NS(=O)(=O)Cc1nc2ccccc2o1` [compound 19] as the molecule, how does the ED50 [1] read?
**A.** Its ED50 is 12 mg/kg.

**Q.** What about the TD50 [2] of the same molecule?
**A.** The TD50 was 168 mg/kg.

**Q.** What about the selectivity ratio [2] of the same molecule?
**A.** Its selectivity ratio is 14.

**Q.** What about the LD50 at 168 h ([3]; oral, mice) of the same molecule?
**A.** Its LD50 at 168 h is about 1800 mg/kg.

**Q.** Which selectivity ratio [2] does the source give for `NS(=O)(=O)Cc1noc2ccc(F)cc12` [Test compound 10, 5-Fluoro-3-sulfamoylmethyl-1,2-benzisoxazole] here?
**A.** The selectivity ratio was 10.6.

**Q.** What about the “NTD50 (median neurotoxic dose)” value [2] of the same molecule?
**A.** The value was 154 mg/kg, p.o.

**Q.** And the selectivity ratio ([3]; LD50/ED50 of anti-MES, mice, oral)?
**A.** The selectivity ratio was 86.7.

**Q.** What about the LD50 at 168 h ([3]; oral, mice) of the same molecule?
**A.** The LD50 at 168 h was 1260 mg/kg.

**Q.** For `CNS(=O)(=O)Cc1noc2ccc(Cl)cc12` [Test compound 7], which ED50 [1] is on record?
**A.** Its ED50 is about 20 mg/kg.

**Q.** Which ED50 [1] does the source give for `CC(C)NS(=O)(=O)Cc1noc2ccc(Br)cc12` [compound 17] here?
**A.** The ED50 was 22.3 mg/kg.

**Q.** With `CNS(=O)(=O)Cc1noc2ccccc12` [compound 2] as the molecule, how does the ED50 [1] read?
**A.** The ED50 was 22.3 mg/kg.

**Q.** Which ED50 [1] does the source give for `CN(C)S(=O)(=O)Cc1noc2ccc(F)cc12` [compound 13] here?
**A.** The ED50 was 32 mg/kg.

**Q.** With `CN(C)S(=O)(=O)Cc1noc2ccccc12` [compound 5] as the molecule, how does the ED50 [1] read?
**A.** The ED50 was 37.2 mg/kg.

**Q.** Which results are given for `NS(=O)(=O)Cc1noc2ccccc12` [compound 1]?
**A.** ED50 [1]: 19.6 mg/kg; selectivity ratio [2]: 14.9; NTD50 (median neurotoxic dose) [2]: 292 mg/kg, p.o; LD50 at 168 h ([3]; oral, mice): 1830 mg/kg; selectivity ratio ([3]; po): 93.3

**Q.** For `CCC1(c2ccccc2)C(=O)NCNC1=O` [Primidone, 5-ethyl-5-phenylhexahydropyrimidine-4,6-dione, reference compound], which ED50 [1] is on record?
**A.** Its ED50 is 21.7 mg/kg.

**Q.** For `CCNS(=O)(=O)Cc1noc2ccccc12` [Test compound 3], which ED50 [1] is on record?
**A.** Its ED50 is 38.9 mg/kg.

**Q.** Which ED50 [1] does the source give for `CN(C)S(=O)(=O)Cc1noc2ccc(Cl)cc12` [compound 9] here?
**A.** The ED50 was 56.2 mg/kg.

**Q.** Which results are given for `NC(=O)N1c2ccccc2C=Cc2ccccc21` [Carbamazepine, 5H-dibenz[b,f]azepine-5-carboxamide, reference compound]?
**A.** ED50 [1]: 13.2 mg/kg; TD50 [2]: 141 mg/kg; selectivity ratio [2]: 10.7; LD50 at 168 h ([3]; oral, mice): 1700 mg/kg; selectivity ratio ([3]; po): 129

**Q.** With `CC(C)NS(=O)(=O)Cc1noc2ccccc12` [Test compound 4] as the molecule, how does the ED50 [1] read?
**A.** The ED50 was 56 mg/kg.

**Q.** For `CNS(=O)(=O)Cc1noc2ccc(F)cc12` [compound 11], which ED50 [1] is on record?
**A.** The ED50 was 34.5 mg/kg.

**Q.** Which ED50 [1] does the source give for `CCNS(=O)(=O)Cc1noc2ccc(F)cc12` [compound 12] here?
**A.** The ED50 was 31.6 mg/kg.

**Q.** For `CCNS(=O)(=O)Cc1noc2ccc(Cl)cc12` [compound 8], which ED50 [1] is on record?
**A.** Its ED50 is 21.3 mg/kg.

**Q.** Which results are given for `O=C1NC(=O)C(c2ccccc2)(c2ccccc2)N1` [Diphenylhydantoin, 5,5-diphenyl-2,4-imidazolidinedione, reference compound]?
**A.** ED50 [1]: 7.6 mg/kg; TD50 [2]: 72 mg/kg

**Q.** For `NS(=O)(=O)Cc1nc2cc(Cl)ccc2o1` [compound 23], which ED50 [1] is on record?
**A.** Its ED50 is 30.3 mg/kg.

**Q.** With `CNS(=O)(=O)Cc1nc2ccccc2o1` [compound 20] as the molecule, how does the ED50 [1] read?
**A.** The ED50 was 17.2 mg/kg.

**Q.** Which ED50 [1] does the source give for `NS(=O)(=O)Cc1noc2ccc(Cl)cc12` [compound 6] here?
**A.** Its ED50 is 14.2 mg/kg.

**Q.** With `CCNS(=O)(=O)Cc1noc2ccc(Br)cc12` [compound 16] as the molecule, how does the ED50 [1] read?
**A.** Its ED50 is 18.3 mg/kg.

**Q.** With `NS(=O)(=O)Cc1noc2ccc(Br)cc12` [compound 14] as the molecule, how does the ED50 [1] read?
**A.** The ED50 was 13.5 mg/kg.

**Q.** For `NS(=O)(=O)Cc1noc2cc(F)ccc12` [compound 18], which ED50 [1] is on record?
**A.** The ED50 was 18.9 mg/kg.
